Results published in patent US20180037595A1, “BENZOXABOROLE COMPOUNDS AND USES THEREOF” (GLAXOSMITHKLINE INTELLECTUAL PROPERTY (NO.2) LIMITED, priority 2015, published 2018).

Test system: M. tuberculosis clinical isolates
Assay: MIC against clinical strains (BACTEC MGIT 960 System)
Assay type: cell-based
Conditions: Mycobacterium tuberculosis

Row | SMILES | MIC (against 85 of the 96 clinical isolate strains tested (sensitive and resistant)) [µM] | MIC (strain 330, resistant clinical isolate, resistance HSR (Tables 2B, 2D)) [µM]
1 | NC[C@H]1OB2OCCOc3ccc(Cl)c1c32 [Example G4-CI] | < 0.1 | –
2 | Cl.NC[C@H]1OB2OCCOc3ccc(Cl)c1c32 [Example 4, (S)-(3-chloro-7,8-dihydro-2H-1,6,9-trioxa-9a-borabenzo[cd]azulen-2-yl)methanamine hydrochloride] | – | 0.08
